The record followed here is patent US8481576B2 (Abbott GmbH & Co. KG, priority 2004, dated 2013).

Where a name gives a salt, the structure may show the parent alone.

T1 sequence (P47898 whole entry): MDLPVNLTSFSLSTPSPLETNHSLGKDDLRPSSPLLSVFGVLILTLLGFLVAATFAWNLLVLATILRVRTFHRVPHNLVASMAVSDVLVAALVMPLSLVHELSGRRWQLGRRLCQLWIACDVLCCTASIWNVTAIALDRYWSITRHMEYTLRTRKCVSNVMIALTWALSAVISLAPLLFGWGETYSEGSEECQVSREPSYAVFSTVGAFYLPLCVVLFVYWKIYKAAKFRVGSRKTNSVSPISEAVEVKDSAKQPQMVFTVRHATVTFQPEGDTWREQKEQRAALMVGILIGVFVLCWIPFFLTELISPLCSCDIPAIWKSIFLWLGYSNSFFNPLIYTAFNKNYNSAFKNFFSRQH

This assay addresses T1, h5-HT5A receptor (Homo sapiens, UniProt P47898).
T1 construct: expressed in transfected cells; host or cells: HEK293
Briefly: [3H]5-CT binding assay h5-HT5A. As to conditions: membranes from HEK293 cells expressing h5-HT5A, 2.5 nM [3H]5-CT; read-out: Binding affinity 5-HT5A (Ki). The procedure:
1. [^3H]5-CT binding assay h5-HT5A
Membranes from HEK293-cells, which permanently express the h5-HT5A receptor gene, were incubated in 100 mM Tris-HCl-buffer (pH 7.7), containing 1 mM EDTA in the presence of 2.5 nM [^3H]5-CT (600 μl total volume). The total binding is defined as the binding which is observed when the membranes are incubated alone in the presence of the radioligand. The inhibition induced by the compound is determined by incubation of cell membranes in the presence of the radioligand, and of different concentrations of the compound of interest. Unspecific binding is defined by the binding of [^3H]5-CT, which is obtained by incubation of the membranes as for the total binding but in the presence of 10 μM methiothepine. Following an incubation of 75 minutes at 30° C. the membrane suspension is filtered through GF/B-filters, wrapped in 0.03% PEI, wherein a Skatron® harvest system is used. The radioactivity retained in the filter is quantified by liquid scintillation counting.
In both assays, different concentrations of the test substances are used, and the Ki or the IC50 values are determined.
Take `COc1ccccc1CNC(=N)Nc1nc(-c2cccnc2)cs1` [Example 48, N-(2-methoxybenzyl)-N′-(4-pyridine-3-yl-1,3-thiazole-2-yl)guanidine]: the Ki (commonly a dissociation constant, usually derived from enzyme kinetics or from competition with a known ligand) is 50 to 500 nM. With `COC(=O)Cc1csc(NC(=N)NCc2c(OC)cccc2OC)n1` [Example 49, Methyl-(2-{[[(2,6-dimethoxybenzyl)amino](imino)methyl]amino}-1,3-thiazole-4-yl)acetate] the figure was below 50 nM; with `COc1cccc(OC)c1CNC(=N)Nc1nc(-c2cccnc2)cs1` [Example 50, N-(2,6-dimethoxybenzyl)-N′-(4-pyridine-3-yl-1,3-thiazole-2-yl)guanidine acetate], below 50 nM; with `COc1ccccc1CNC(=N)Nc1nc(C(F)(F)F)cs1` [Example 52, N-(2-methoxybenzyl)-N′-[4-(trifluoromethyl)-1,3-thiazole-2-yl]guanidine (2E)-But-2-endioate], above 500 nM. With `COc1cccc(OC)c1CNC(=N)Nc1nc(C(F)(F)F)cs1` [Example 53, N-(2,6-dimethoxybenzyl)-N′-[4-(trifluoromethyl)-1,3-thiazole-2-yl]guanidine] the figure was 50 to 500 nM; with `COc1ccccc1CNC(=N)Nc1ncc(C)s1` [Example 54, N-(2-methoxybenzyl)-N′-(5-methyl-1,3-thiazole-2-yl)guanidine (2E)-But-2-endioate], below 50 nM.

`COc1cccc(OC)c1CNC(=N)Nc1ncc(C)s1` [Example 55, N-(2,6-dimethoxybenzyl)-N′-(5-methyl-1,3-thiazole-2-yl)guanidine]: the Ki is below 50 nM. With `COc1cccc(OC)c1CNC(=N)Nc1nc(-c2ccc(F)cc2)cs1` [Example 56, N-(2,6-dimethoxybenzyl)-N′-[4-(4-fluorophenyl)-1,3-thiazole-2-yl]guanidine] the figure was below 50 nM; with `COc1cccc(OC)c1CNC(=N)Nc1nc(-c2ccc(C)cc2)cs1` [Example 57, N-(2,6-dimethoxybenzyl)-N′-[4-(4-methylphenyl)-1,3-thiazole-2-yl]guanidine], below 50 nM; with `COc1ccc(-c2csc(NC(=N)NCc3c(OC)cccc3OC)n2)cc1` [Example 58, N-(2,6-dimethoxybenzyl)-N′-[4-(4-methoxyphenyl)-1,3-thiazole-2-yl]guanidine], below 50 nM. The figure for `COc1cccc(F)c1CNC(=N)Nc1nc(-c2ccccc2)cs1` [Example 59, N-(2-fluoro-6-methoxybenzyl)-N′-(4-phenyl-1,3-thiazole-2-yl)guanidine] is below 50 nM; for `COc1cccc(OC)c1CNC(=N)Nc1nc(-c2ccc(C#N)cc2)cs1` [Example 60, N-[4-(4-cyanophenyl)-1,3-thiazole-2-yl]-N′-(2,6-dimethoxybenzyl)guanidine] it is below 50 nM. In the case of `COc1cccc(-c2csc(NC(=N)NCc3c(OC)cccc3OC)n2)c1` [Example 61, N-(2,6-dimethoxybenzyl)-N′-[4-(3-methoxyphenyl)-1,3-thiazole-2-yl]guanidine], the inhibition constant (Ki) was below 50 nM. The figure for `CCN(CC)c1ccc(-c2csc(NC(=N)NCc3c(OC)cccc3OC)n2)cc1` [Example 62, N-{4-[4-(diethylamino)phenyl]-1,3-thiazole-2-yl}-N′-(2,6-dimethoxybenzyl)guanidine] is 50 to 500 nM; for `COc1cccc(OC)c1CNC(=N)Nc1nc(-c2ccc(N3CCCC3)cc2)cs1` [Example 63, N-(2,6-dimethoxybenzyl)-N′-[4-(4-pyrrolidine-1-ylphenyl)-1,3-thiazole-2-yl]guanidine hydrobromide] it is below 50 nM. The figure for `COc1cccc(OC)c1CNC(=N)Nc1nc(-c2ccc(OC(F)(F)F)cc2)cs1` [Example 64, N-(2,6-dimethoxybenzyl)-N′-{4-[4-(trifluoromethoxy)phenyl]-1,3-thiazole-2-yl}guanidine hydrobromide] is below 50 nM; for `COc1cccc(OC)c1CNC(=N)Nc1nc(-c2ccc(N3CCOCC3)cc2)cs1` [Example 65, N-(2,6-dimethoxybenzyl)-N′-[4-(4-morpholine-4-ylphenyl)-1,3-thiazole-2-yl]guanidine hydrobromide] it is below 50 nM. With `COc1cccc(OC)c1CNC(=N)Nc1ncc(-c2ccccc2)s1` [Example 66, N-(2,6-dimethoxybenzyl)-M-(5-phenyl-1,3-thiazole-2-yl)guanidine hydrobromide] the figure was below 50 nM; with `COc1cccc(OC)c1CNC(=N)Nc1nc(-c2cc3ccccc3o2)cs1` [Example 67, N-[4-(1-benzofuran-2-yl)-1,3-thiazole-2-yl]-N′-(2,6-dimethoxybenzyl)guanidine hydrobromide], below 50 nM; with `COc1cccc(OC)c1CNC(=N)Nc1nc(-c2cc(F)cc(F)c2)cs1` [Example 68, N-[4-(3,5-difluorophenyl)-1,3-thiazole-2-yl]-N′-(2,6-dimethoxybenzyl)guanidine hydrobromide], below 50 nM. Turning to `COc1cccc(OC)c1CNC(=N)Nc1nc(-c2ccc3c(c2)OCO3)cs1` [Example 69, N-[4-(1,3-benzodioxol-5-yl)-1,3-thiazole-2-yl]-N′-(2,6-dimethoxybenzyl)guanidine hydrobromide], the Ki was below 50 nM. The figure for `COc1cccc(OC)c1CNC(=N)Nc1nc(-c2ccccc2F)cs1` [Example 70, N-(2,6-dimethoxybenzyl)-N′-[4-(2-fluorophenyl)-1,3-thiazole-2-yl]guanidine hydrobromide] is below 50 nM; for `COc1cccc(OC)c1CNC(=N)Nc1nc(-c2ccc(NS(C)(=O)=O)cc2)cs1` [Example 71, N-[4-(2-{[[(2,6-dimethoxybenzyl)amino](imino)methyl]amino}-1,3-thiazole-4-yl)phenyl]methanesulfonamide hydrobromide] it is below 50 nM.

Turning to `COc1cccc(OC)c1CNC(=N)Nc1nc(-c2ccsc2)cs1` [Example 72, N-(2,6-dimethoxybenzyl)-N′-[4-(3-thienyl)-1,3-thiazole-2-yl]guanidine acetate], the Ki was below 50 nM. With `COc1cccc(OC)c1CNC(=N)Nc1nc(-c2cccc(F)c2)cs1` [Example 73, N-(2,6-dimethoxybenzyl)-N′-[4-(3-fluorophenyl)-1,3-thiazole-2-yl]guanidine hydrobromide] the figure was below 50 nM; with `COc1cccc(OC)c1CNC(=N)Nc1nc(-c2ccc(-c3ccccc3)cc2)cs1` [Example 74, N-(4-biphenyl-4-yl-1,3-thiazole-2-yl)-N′-(2,6-dimethoxybenzyl)guanidine hydrobromide], below 50 nM; with `COc1ccccc1-c1csc(NC(=N)NCc2c(OC)cccc2OC)n1` [Example 75, N-(2,6-dimethoxybenzyl)-N′-[4-(2-methoxyphenyl)-1,3-thiazole-2-yl]guanidine hydrobromide], below 50 nM. With `COc1cccc(OC)c1CNC(=N)Nc1nc(C(c2ccccc2)c2ccccc2)cs1` [Example 76, N-(2,6-dimethoxybenzyl)-N′-[4-(diphenylmethyl)-1,3-thiazole-2-yl]guanidine hydrobromide] the figure was below 50 nM; with `COc1cccc(OC)c1CNC(=N)Nc1nc(-c2ccc(Cl)s2)cs1` [Example 77, N-[4-(5-chloro-2-thienyl)-1,3-thiazole-2-yl]-N′-(2,6-dimethoxybenzyl)guanidine hydrobromide], below 50 nM; with `COc1cccc(OC)c1CNC(=N)Nc1nc2c(s1)Cc1ccccc1-2` [Example 80, N-(2,6-dimethoxybenzyl)-N′-8H-indeno[1,2-d][1,3]thiazole-2-ylguanidine hydrobromide], below 50 nM. The figure for `COc1cccc(OC)c1CNC(=N)Nc1nc(-c2ccc(S(C)(=O)=O)cc2)cs1` [Example 82, N-(2,6-dimethoxybenzyl)-N′-{4-[4-(methylsulfonyl)phenyl]-1,3-thiazole-2-yl}guanidine hydrobromide] is 50 to 500 nM.

Regarding `COc1cccc(OC)c1CNC(=N)Nc1nc(-c2cc(-c3ccccc3)no2)cs1` [Example 83, N-(2,6-dimethoxybenzyl)-N′-[4-(3-phenylisoxazole-5-yl)-1,3-thiazole-2-yl]guanidine hydrobromide], the Ki was below 50 nM. Regarding `COc1cccc(OC)c1CNC(=N)Nc1nc(-c2ccccc2C(F)(F)F)cs1` [Example 84, N-(2,6-dimethoxybenzyl)-N′-{4-[2-(trifluoromethyl)phenyl]-1,3-thiazole-2-yl}guanidine hydrobromide], the Ki was below 50 nM. With `COc1cccc(OC)c1CNC(=N)Nc1nc(C23CC4CC(CC(C4)C2)C3)cs1` [Example 85, N-[4-(1-adamantyl)-1,3-thiazole-2-yl]-N′-(2,6-dimethoxybenzyl)guanidine hydrobromide] the figure was below 50 nM. For `COc1cccc(F)c1CNC(=N)Nc1nc(C)cs1` [Example 86, N-(2-fluoro-6-methoxybenzyl)-N′-(4-methyl-1,3-thiazole-2-yl)guanidine], the inhibition constant Ki is below 50 nM.

Consider `COc1cccc(OC)c1CNC(=N)Nc1nc(-c2ccc(F)c(F)c2)cs1` [Example 87, N-[4-(3,4-difluorophenyl)-1,3-thiazole-2-yl]-N′-(2,6-dimethoxybenzyl)guanidine hydrobromide], for which the Ki was below 50 nM.

For `COc1cccc(OC)c1CNC(=N)Nc1nc(-c2nc3ccccc3s2)cs1` [Example 88, N-[4-(1,3-benzothiazole-2-yl)-1,3-thiazole-2-yl]-N′-(2,6-dimethoxybenzyl)guanidine hydrobromide], the Ki is below 50 nM.
